Patent US20230399612A1, “METHOD FOR THE GENERATION OF NEUROSPHERES” (KUGELMEIERS LTD., priority 2020, published 2023)
Like-named read-outs stand apart in the source and are kept apart here.

Test system: Hi-Q organoids
Assay: Calcium imaging in sections of Hi-Q brain organoids (Oregon Green BAPTA 1)
Type: cell-based, human
Conditions: for calcium signals on addition of the substance: more evident in older than in younger organoids, FIG. 4C-D

Compound | response of organoids to added transmitter (calcium imaging) (Day 30 organoids, FIG. 4C) | response of organoids to added transmitter (calcium imaging) (Day 40 organoids, FIG. 4D) | calcium signals on addition of the substance | further results
NiCl2 |  |  |  | effect on the response to GABA (blocker added, calcium signal evoked by GABA): blocked
NS(=O)(=O)c1cccc2c1c([N+](=O)[O-])cc1nc(O)c(O)nc12 [NBQX] |  |  |  | effect on calcium signals evoked by GABA or glutamate (involvement of AMPA receptors) (blocker added): blocked
glutamate | no response | respond | spike in calcium signals | 
NC1=N[C@H](O)[C@H]2[C@H]3O[C@]4(O)O[C@@H]([C@@H](O)[C@@]2(N1)[C@@H]4O)[C@]3(O)CO [TTX, tetrodotoxin] |  |  |  | effect on the response to GABA: not altered; inhibition of sodium channels in the brain organoids, analyzed by calcium imaging: inhibits sodium channels
NCCCC(=O)O [GABA] | respond | respond | spike in calcium signals | 
